Source: patent US11746103B2, “ALK-5 inhibitors and uses thereof” (Sumitomo Pharma Oncology, Inc., priority 2020, dated 2023)
“Also recorded” adds a separate entry of the source.

Tested on: ES-2-luc cells
Assay: ES-2 survival study (ovarian cancer xenograft)
Assay type: in vivo, mouse
Conditions: 150 mg/Kg twice a day, P.O.
From the text: Ovarian cancer is still associated with poor prognosis and remains among the leading causes of oncology-related deaths in females. High recurrence rates, resistance to chemotherapy and meager outcome highlight the need for improved therapies that stem from understanding the complex and multifactorial etiology of ovarian malignancies. TGF-01 signaling within tumor microenvironment regulates important steps in ovarian cancer progression such as epithelial to mesenchymal transition, dissemination, and metastasis. Inhibition of TGF-01 signaling pathway has shown a potential as a pharmaceutical target in ovarian malignancies. ES-2 ovarian cancer mouse xenograft model was used to test efficacy of EX-11 in ovarian cancer, as measured by improvement in survival.
Sixteen-week-old female athymic nude mice were injected with two million ES-2-luc cells. […]
Mortality was recorded for animals found dead in the cage, and for the animals sacrificed based on humane end point based on main three criteria—loss of mobility and response, wasting with pronounced ascites fluid buildup, and palpable drop in body temperature (animals were assessed as cold to touch when handled in gloves).
On study day 22, the remaining surviving animals in the vehicle group were determined moribund, and the study was terminated based on humane end point criteria. […]

Compound: Cc1cccc2c(Nc3ccnc(Nc4cccc(N5CCOCC5)c4)n3)cnnc12 [EX-11, N4-(8-methylcinnolin-4-yl)-N2-(3-morpholinophenyl)pyrimidine-2,4-diamine]
- overall survival compared with vehicle-treated animals: significantly increased; also recorded: significantly improved
